One may read the IC50 as the point on the concentration scale where inhibition reaches its midpoint. As a reminder, the inhibition is the change of the read-out against control, counted positive when it falls.

Results on six molecules are retold here after ChEMBL document CHEMBL5316324, “Discovery, Characterization, and Engineering of LvIC, an α4/4-Conotoxin That Selectively Blocks Rat α6/α3β4 Nicotinic Acetylcholine Receptors” (J Med Chem, 2023).

Test [1] concerns the target T1, Nicotinic acetylcholine receptor alpha6/alpha3/beta4 (Rattus norvegicus, UniProt P04757+P12392+P43143). Kind of test: Inhibition of rat alpha6/alpha3beta4 nAChR expressed in Stage V-VI Xenopus laevis Oocytes assessed as inhibition of acetylcholine-induced current in presence of acetylcholine by electrophysiological recording. The test is classed as cell-based, Oocyte.

The target in test [2] is Nicotinic acetylcholine receptor alpha6/alpha3/beta4 (Rattus norvegicus) (UniProt P04757+P12392+P43143). Kind of test: Inhibition of rat alpha6/alpha3beta4 nAChR expressed in Stage V-VI Xenopus laevis Oocytes assessed as inhibition of acetylcholine-induced current by measuring recovery time at 10 uM preincubated with compound for 5 mins followed by washout in presence of acetylcholine by electrophysiological recording. It is filed as cell-based. As to conditions: Oocyte.

The target of test [3] is Neuronal acetylcholine receptor; alpha3/beta2 (Rattus norvegicus, UniProt P04757+P12390). Kind of test: Inhibition of rat alpha3/beta2 nAChR expressed in Stage V-VI Xenopus laevis Oocytes assessed as inhibition of acetylcholine-induced current in presence of acetylcholine by electrophysiological recording. It is filed as cell-based, Oocyte.
Test [4] addresses Neuronal acetylcholine receptor; alpha3/beta4 (Rattus norvegicus) (UniProt P04757+P12392). The test can be described thus: Inhibition of rat alpha3/beta4 nAChR expressed in Stage V-VI Xenopus laevis Oocytes assessed as inhibition of acetylcholine-induced current at 10 uM in presence of acetylcholine by electrophysiological recording relative to control. The test is classed as cell-based. As to conditions: Oocyte.

For test [5], the target named is Neuronal acetylcholine receptor; alpha4/beta4 (Rattus norvegicus, UniProt P09483+P12392). Kind of test: Inhibition of rat alpha4/beta4 nAChR expressed in Stage V-VI Xenopus laevis Oocytes assessed as inhibition of acetylcholine-induced current in presence of acetylcholine by electrophysiological recording. The test is classed as cell-based, Oocyte.
Test [6] concerns the target Nicotinic acetylcholine receptor alpha1/beta1/epsilon/delta (Mus musculus) (UniProt P04756+P09690+P02716+P20782). Kind of test: Inhibition of mouse alpha1/beta1deltaepsilon nAChR expressed in Stage V-VI Xenopus laevis Oocytes assessed as inhibition of acetylcholine-induced current at 10 uM in presence of acetylcholine by electrophysiological recording relative to control. It is filed as cell-based. To be noted: Oocyte.

For test [7], the target named is Neuronal acetylcholine receptor; alpha3/beta4 (Rattus norvegicus, UniProt P04757+P12392). The test can be described thus: Inhibition of rat alpha3/beta4 nAChR expressed in Stage V-VI Xenopus laevis Oocytes assessed as inhibition of acetylcholine-induced current in presence of acetylcholine by electrophysiological recording. It is filed as cell-based, Oocyte.
Test [8] has as its target Nicotinic acetylcholine receptor alpha9/alpha10 (Rattus norvegicus) (UniProt P43144+Q9JLB5). The test can be described thus: Inhibition of rat alpha9/alpha10 nAChR expressed in Stage V-VI Xenopus laevis Oocytes assessed as inhibition of acetylcholine-induced current at 10 uM in presence of acetylcholine by electrophysiological recording relative to control. The test is classed as cell-based. To be noted: Oocyte.

Test [9] addresses Neuronal acetylcholine receptor subunit alpha-7 (Rattus norvegicus, UniProt Q05941). The test can be described thus: Inhibition of rat alpha7 nAChR expressed in Stage V-VI Xenopus laevis Oocytes assessed as inhibition of acetylcholine-induced current in presence of acetylcholine by electrophysiological recording. The test is classed as cell-based, Oocyte.
The target in test [10] is Neuronal acetylcholine receptor subunit alpha-7 (Rattus norvegicus) (UniProt Q05941). The test can be described thus: Inhibition of rat alpha7 nAChR expressed in Stage V-VI Xenopus laevis Oocytes assessed as inhibition of acetylcholine-induced current at 10 uM in presence of acetylcholine by electrophysiological recording relative to control. The test is classed as cell-based. As to conditions: Oocyte.

Test [11] concerns the target Neuronal acetylcholine receptor; alpha2/beta2 (Rattus norvegicus) (UniProt P12389+P12390). Kind of test: Inhibition of rat alpha2/beta2 nAChR expressed in Stage V-VI Xenopus laevis Oocytes assessed as inhibition of acetylcholine-induced current at 10 uM in presence of acetylcholine by electrophysiological recording relative to control. It is filed as cell-based. To be noted: Oocyte.

The target of test [12] is Neuronal acetylcholine receptor; alpha3/beta2 (Rattus norvegicus) (UniProt P04757+P12390). The test can be described thus: Inhibition of rat alpha3/beta2 nAChR expressed in Stage V-VI Xenopus laevis Oocytes assessed as inhibition of acetylcholine-induced current at 10 uM in presence of acetylcholine by electrophysiological recording relative to control. It is filed as cell-based. To be noted: Oocyte.

For test [13], the target named is Nicotinic acetylcholine receptor alpha6/alpha3/beta2/beta3 (Rattus norvegicus, UniProt P04757+P12390+P12391+P43143). Kind of test: Inhibition of rat alpha6/alpha3beta2beta3 nAChR expressed in Stage V-VI Xenopus laevis Oocytes assessed as inhibition of acetylcholine-induced current in presence of acetylcholine by electrophysiological recording. It is filed as cell-based, Oocyte.

Test [14] addresses Nicotinic acetylcholine receptor alpha9/alpha10 (Rattus norvegicus, UniProt P43144+Q9JLB5). Kind of test: Inhibition of rat alpha9/alpha10 nAChR expressed in Stage V-VI Xenopus laevis Oocytes assessed as inhibition of acetylcholine-induced current in presence of acetylcholine by electrophysiological recording. It is filed as cell-based, Oocyte.
The target in test [15] is Neuronal acetylcholine receptor; alpha4/beta4 (Rattus norvegicus) (UniProt P09483+P12392). Kind of test: Inhibition of rat alpha4/beta4 nAChR expressed in Stage V-VI Xenopus laevis Oocytes assessed as inhibition of acetylcholine-induced current at 10 uM in presence of acetylcholine by electrophysiological recording relative to control. The test is classed as cell-based. To be noted: Oocyte.

Test [16] has as its target Neuronal acetylcholine receptor; alpha4/beta2 (Rattus norvegicus) (UniProt P09483+P12390). Kind of test: Inhibition of rat alpha4/beta2 nAChR expressed in Stage V-VI Xenopus laevis Oocytes assessed as inhibition of acetylcholine-induced current at 10 uM in presence of acetylcholine by electrophysiological recording relative to control. It is filed as cell-based. To be noted: Oocyte.

Test [17] deals with Neuronal acetylcholine receptor; alpha4/beta2 (Rattus norvegicus, UniProt P09483+P12390). The test can be described thus: Inhibition of rat alpha4/beta2 nAChR expressed in Stage V-VI Xenopus laevis Oocytes assessed as inhibition of acetylcholine-induced current in presence of acetylcholine by electrophysiological recording. It is filed as cell-based, Oocyte.
Test [18] addresses Nicotinic acetylcholine receptor alpha1/beta1/epsilon/delta (Mus musculus, UniProt P02716+P04756+P09690+P20782). The test can be described thus: Inhibition of mouse alpha1/beta1deltaepsilon nAChR expressed in Stage V-VI Xenopus laevis Oocytes assessed as inhibition of acetylcholine-induced current in presence of acetylcholine by electrophysiological recording. The test is classed as cell-based, Oocyte.

Test [19] has as its target Nicotinic acetylcholine receptor alpha6/alpha3/beta2/beta3 (Rattus norvegicus) (UniProt P04757+P12390+P12391+P43143). Kind of test: Inhibition of rat alpha6/alpha3beta2beta3 nAChR expressed in Stage V-VI Xenopus laevis Oocytes assessed as inhibition of acetylcholine-induced current at 10 uM in presence of acetylcholine by electrophysiological recording relative to control. As to conditions: Oocyte. It is filed as cell-based.

Test [20] deals with Neuronal acetylcholine receptor; alpha2/beta4 (Rattus norvegicus, UniProt P12389+P12392). The test can be described thus: Inhibition of rat alpha2/beta4 nAChR expressed in Stage V-VI Xenopus laevis Oocytes assessed as inhibition of acetylcholine-induced current in presence of acetylcholine by electrophysiological recording. The test is classed as cell-based, Oocyte.
Neuronal acetylcholine receptor; alpha2/beta4, sequence (P12389 whole entry): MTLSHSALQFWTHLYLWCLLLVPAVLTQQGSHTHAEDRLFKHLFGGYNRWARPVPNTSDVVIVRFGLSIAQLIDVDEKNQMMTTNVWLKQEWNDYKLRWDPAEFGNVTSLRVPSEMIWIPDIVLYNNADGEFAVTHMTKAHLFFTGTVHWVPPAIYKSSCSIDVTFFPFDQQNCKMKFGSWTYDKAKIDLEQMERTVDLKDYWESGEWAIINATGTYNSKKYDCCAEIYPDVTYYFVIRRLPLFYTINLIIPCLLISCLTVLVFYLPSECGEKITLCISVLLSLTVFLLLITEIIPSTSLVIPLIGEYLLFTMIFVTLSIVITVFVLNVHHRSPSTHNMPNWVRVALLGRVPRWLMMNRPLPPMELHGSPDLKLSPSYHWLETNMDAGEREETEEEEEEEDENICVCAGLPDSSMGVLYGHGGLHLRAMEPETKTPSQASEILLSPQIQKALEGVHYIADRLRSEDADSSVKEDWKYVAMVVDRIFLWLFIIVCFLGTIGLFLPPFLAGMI
Neuronal acetylcholine receptor; alpha2/beta4, sequence (P12392 whole entry): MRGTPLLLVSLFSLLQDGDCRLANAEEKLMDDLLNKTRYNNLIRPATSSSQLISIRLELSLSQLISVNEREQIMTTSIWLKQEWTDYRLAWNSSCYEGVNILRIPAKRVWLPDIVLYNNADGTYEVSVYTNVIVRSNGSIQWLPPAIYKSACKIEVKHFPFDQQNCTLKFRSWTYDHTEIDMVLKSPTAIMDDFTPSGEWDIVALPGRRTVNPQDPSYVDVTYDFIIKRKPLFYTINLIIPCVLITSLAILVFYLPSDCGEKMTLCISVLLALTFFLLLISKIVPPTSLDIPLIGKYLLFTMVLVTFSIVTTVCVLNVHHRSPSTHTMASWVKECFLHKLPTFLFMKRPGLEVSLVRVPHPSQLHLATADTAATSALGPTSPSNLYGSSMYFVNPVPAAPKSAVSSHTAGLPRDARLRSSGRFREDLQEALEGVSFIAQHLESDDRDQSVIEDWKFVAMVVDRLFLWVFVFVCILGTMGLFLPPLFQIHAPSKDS
Test [21] concerns the target Neuronal acetylcholine receptor; alpha2/beta4 (Rattus norvegicus) (UniProt P12389+P12392). Kind of test: Inhibition of rat alpha2/beta4 nAChR expressed in Stage V-VI Xenopus laevis Oocytes assessed as inhibition of acetylcholine-induced current at 10 uM in presence of acetylcholine by electrophysiological recording relative to control. It is filed as cell-based. As to conditions: Oocyte.

The target of test [22] is Neuronal acetylcholine receptor; alpha2/beta2 (Rattus norvegicus, UniProt P12389+P12390). Kind of test: Inhibition of rat alpha2/beta2 nAChR expressed in Stage V-VI Xenopus laevis Oocytes assessed as inhibition of acetylcholine-induced current in presence of acetylcholine by electrophysiological recording. It is filed as cell-based, Oocyte.
Neuronal acetylcholine receptor; alpha2/beta2, sequence (P12389 whole entry): as the sequence (P12389 whole entry) above
Neuronal acetylcholine receptor; alpha2/beta2, sequence (P12390 whole entry): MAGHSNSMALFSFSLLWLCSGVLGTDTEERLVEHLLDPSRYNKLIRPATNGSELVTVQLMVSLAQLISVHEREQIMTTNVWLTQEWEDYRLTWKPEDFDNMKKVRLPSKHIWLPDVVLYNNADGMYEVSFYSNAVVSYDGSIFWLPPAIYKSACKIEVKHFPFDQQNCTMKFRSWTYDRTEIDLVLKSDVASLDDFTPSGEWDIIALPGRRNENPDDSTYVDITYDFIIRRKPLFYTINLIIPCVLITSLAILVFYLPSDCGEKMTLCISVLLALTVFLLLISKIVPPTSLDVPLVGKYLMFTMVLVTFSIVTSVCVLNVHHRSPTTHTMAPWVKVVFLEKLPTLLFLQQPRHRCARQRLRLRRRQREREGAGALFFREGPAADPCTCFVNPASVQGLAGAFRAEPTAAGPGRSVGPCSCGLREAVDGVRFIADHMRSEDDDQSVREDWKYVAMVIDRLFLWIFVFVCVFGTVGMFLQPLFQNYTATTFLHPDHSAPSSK
Test [23] addresses T1, Nicotinic acetylcholine receptor alpha6/alpha3/beta4. Kind of test: Inhibition of rat alpha6/alpha3beta4 nAChR expressed in Xenopus Oocytes in presence of acetylcholine by Voltage-clamp recording. It is filed as cell-based.
For a further test, the species on record is Rattus norvegicus. Kind of test: Selectivity ratio of IC50 for rat alpha6/alpha3beta4 nAChR expressed in Stage V-VI Xenopus laevis oocytes in presence of acetylcholine to IC50 for rat alpha3beta4 nAChR expressed in Stage V-VI Xenopus laevis Oocytes in presence of acetylcholine by electrophysiological recording. It is filed as cell-based.

The structures appear in SMILES notation. Numbered stars: 1 amine (or outer) side, 2 acyl side, 3 side chain; on linkers, the order of the positions; unused ones are H or OH. Bridge positions count the residues as written; N and C are the ends. Square brackets hold non-standard residues; d marks the D form. Side chains are listed from the residue outwards. Peptide text beside a SMILES is read from it. ξ: configuration not given here. ξPro(4ξ-NH2) = O=C(C1CC(N[*:3])CN1[*:1])[*:2]; ξpGlu = O=C1CCC(C(=O)O)N1

T1 sequence (P04757 whole entry): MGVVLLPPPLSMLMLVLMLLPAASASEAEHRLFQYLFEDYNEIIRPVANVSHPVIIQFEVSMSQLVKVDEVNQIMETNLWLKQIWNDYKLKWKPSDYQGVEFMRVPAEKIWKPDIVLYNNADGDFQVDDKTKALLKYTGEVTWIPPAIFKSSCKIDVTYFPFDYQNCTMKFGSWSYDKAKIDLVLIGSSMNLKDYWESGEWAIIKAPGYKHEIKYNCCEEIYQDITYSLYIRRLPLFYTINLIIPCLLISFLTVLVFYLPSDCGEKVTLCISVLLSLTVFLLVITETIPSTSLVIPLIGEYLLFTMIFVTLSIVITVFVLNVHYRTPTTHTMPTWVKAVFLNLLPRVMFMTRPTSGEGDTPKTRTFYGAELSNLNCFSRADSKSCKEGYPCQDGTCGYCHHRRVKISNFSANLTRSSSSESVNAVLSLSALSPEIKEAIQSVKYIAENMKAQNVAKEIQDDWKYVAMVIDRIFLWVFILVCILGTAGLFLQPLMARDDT
T1 sequence (P12392 whole entry): as the sequence (P12392 whole entry) above
T1 sequence (P43143 whole entry): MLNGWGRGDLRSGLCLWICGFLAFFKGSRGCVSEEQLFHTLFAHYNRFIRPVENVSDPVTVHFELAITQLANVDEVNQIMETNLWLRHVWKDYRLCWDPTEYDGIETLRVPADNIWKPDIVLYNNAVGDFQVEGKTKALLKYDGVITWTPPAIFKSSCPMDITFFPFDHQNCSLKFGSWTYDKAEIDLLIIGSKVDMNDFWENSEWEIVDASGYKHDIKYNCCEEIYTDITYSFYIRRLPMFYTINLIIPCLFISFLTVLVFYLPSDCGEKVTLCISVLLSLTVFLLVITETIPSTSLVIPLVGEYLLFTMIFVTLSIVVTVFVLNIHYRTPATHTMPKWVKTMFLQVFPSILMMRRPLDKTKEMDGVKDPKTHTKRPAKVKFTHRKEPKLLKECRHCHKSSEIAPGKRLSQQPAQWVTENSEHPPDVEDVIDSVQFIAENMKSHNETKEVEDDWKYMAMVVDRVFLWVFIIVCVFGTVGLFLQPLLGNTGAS
Nicotinic acetylcholine receptor alpha9/alpha10, sequence (P43144 whole entry): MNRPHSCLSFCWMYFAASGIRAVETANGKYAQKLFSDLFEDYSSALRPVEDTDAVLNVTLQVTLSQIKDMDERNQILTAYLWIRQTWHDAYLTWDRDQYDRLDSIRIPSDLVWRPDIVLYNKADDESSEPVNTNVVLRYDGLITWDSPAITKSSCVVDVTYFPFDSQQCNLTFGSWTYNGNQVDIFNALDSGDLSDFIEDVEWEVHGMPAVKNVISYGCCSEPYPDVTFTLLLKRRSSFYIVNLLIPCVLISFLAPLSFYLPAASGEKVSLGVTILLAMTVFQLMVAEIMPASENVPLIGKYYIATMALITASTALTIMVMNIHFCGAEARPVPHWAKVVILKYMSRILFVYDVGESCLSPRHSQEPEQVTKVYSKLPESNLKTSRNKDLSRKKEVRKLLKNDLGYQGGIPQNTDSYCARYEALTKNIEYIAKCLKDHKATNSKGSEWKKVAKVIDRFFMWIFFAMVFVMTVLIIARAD
Nicotinic acetylcholine receptor alpha9/alpha10, sequence (Q9JLB5 whole entry): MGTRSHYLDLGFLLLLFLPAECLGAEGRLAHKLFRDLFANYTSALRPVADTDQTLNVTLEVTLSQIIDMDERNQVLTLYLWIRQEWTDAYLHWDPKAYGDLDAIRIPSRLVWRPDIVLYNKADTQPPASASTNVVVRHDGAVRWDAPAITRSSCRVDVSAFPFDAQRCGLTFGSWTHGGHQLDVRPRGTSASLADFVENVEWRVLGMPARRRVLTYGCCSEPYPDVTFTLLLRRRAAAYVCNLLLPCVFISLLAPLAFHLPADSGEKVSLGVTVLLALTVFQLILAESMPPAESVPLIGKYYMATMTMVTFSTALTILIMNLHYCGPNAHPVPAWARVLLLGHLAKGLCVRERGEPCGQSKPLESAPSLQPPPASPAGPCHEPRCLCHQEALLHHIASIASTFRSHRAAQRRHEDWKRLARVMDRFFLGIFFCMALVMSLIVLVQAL
Neuronal acetylcholine receptor subunit alpha-7, sequence (Q05941 whole entry): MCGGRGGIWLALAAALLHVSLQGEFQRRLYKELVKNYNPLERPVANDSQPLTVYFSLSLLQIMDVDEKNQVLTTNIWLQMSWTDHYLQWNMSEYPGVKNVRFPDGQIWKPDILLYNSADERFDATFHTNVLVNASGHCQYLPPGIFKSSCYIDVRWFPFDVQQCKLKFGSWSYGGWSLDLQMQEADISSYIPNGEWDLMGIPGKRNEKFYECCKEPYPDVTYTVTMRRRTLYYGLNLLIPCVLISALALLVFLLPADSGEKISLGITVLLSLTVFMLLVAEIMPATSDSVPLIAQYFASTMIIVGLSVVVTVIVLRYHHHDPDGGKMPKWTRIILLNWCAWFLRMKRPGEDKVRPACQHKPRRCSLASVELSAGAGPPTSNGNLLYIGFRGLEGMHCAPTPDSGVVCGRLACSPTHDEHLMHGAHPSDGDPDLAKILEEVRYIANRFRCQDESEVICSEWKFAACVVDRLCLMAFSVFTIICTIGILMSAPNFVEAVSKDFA

Take `CC(C)[C@H](NC(=O)[C@@H]1CCCN1C(=O)[C@H](CC(N)=O)NC(=O)[C@H](C)NC(=O)[C@H](CS)NC(=O)[C@H](CS)NC(=O)CN)C(=O)N[C@@H](CS)C(=O)N[C@@H](CC(N)=O)C(=O)NCC(=O)N[C@@H](C)C(=O)N[C@@H](Cc1cnc[nH]1)C(=O)N[C@@H](CS)C(N)=O` (H-GCCANPVCNGAHC-NH2): the IC50 in test [1] turned out to be 0.0723 µM. The TIME in [2] worked out at 0.217 h.

Take `CC(C)[C@H](NC(=O)[C@@H]1CCCN1C(=O)[C@H](CC(N)=O)NC(=O)[C@H](C)NC(=O)[C@H](CS)NC(=O)[C@H](CS)NC(=O)[C@@H](N)CC(=O)O)C(=O)N[C@@H](CS)C(=O)N[C@@H](CC(N)=O)C(=O)NCC(=O)N[C@@H](CCCCN)C(=O)N[C@@H](Cc1cnc[nH]1)C(=O)N[C@@H](CS)C(N)=O` (H-DCCANPVCNGKHC-NH2): the IC50 in [3] was greater than 10 µM; in [5], greater than 10 µM; in test [1] it was 0.31 µM; in test [7], greater than 10 µM; in test [9], greater than 10 µM; in test [13] it was greater than 10 µM. The IC50 in test [14], in [17], in test [18], in test [20] and in [22] was greater than 10 µM throughout. Moreover, the inhibition in test [4], in test [6], in test [8], in [10], in test [11] and in test [12] was less than 50% throughout. Further, the inhibition in [15], in test [16], in test [19] and in test [21] was less than 50% each time.

On to `CC(C)C[C@H](NC(=O)[C@@H](NC(=O)[C@H](C)NC(=O)[C@H](CS)NC(=O)[C@@H]1CCCN1C(=O)[C@@H]1CCC(=O)N1C(=O)[C@H](C)NC(=O)[C@H](CO)NC(=O)[C@H](CS)NC(=O)[C@H](CS)NC(=O)CN)C(C)C)C(=O)N[C@@H](Cc1ccc(O)cc1)C(=O)N[C@@H](CS)C(N)=O`, for which the half-maximal inhibitory concentration (IC50) in [23] came out at 0.0581 µM. Moreover, in the test filed under Rattus norvegicus, the Ratio is 20.

Consider `CC(C)[C@H](NC(=O)[C@H](CS)NC(=O)[C@H](C)NC(=O)[C@@H]1CCCN1C(=O)[C@H](CC(N)=O)NC(=O)[C@H](Cc1c[nH]c2ccccc12)NC(=O)[C@H](CS)NC(=O)[C@H](CS)NC(=O)CNC(=O)C1CC(NC(=O)[C@H](CO)NC(=O)C2CCC(=O)N2)CN1)C(=O)N[C@@H](CCCCN)C(=O)N[C@@H](CC(N)=O)C(=O)N[C@@H](CCCNC(=N)N)C(=O)N[C@@H](CS)C(N)=O` (stereo not given in full) (H-[ξPro(4ξ-NH2)]([Ser-ξpGlu])GCCWNPACVKNRC-NH2), for which the IC50 in test [1] stood at 0.094 µM. In test [2], the TIME was 0.05 h.

As for `CC(C)[C@@H]1NC(=O)[C@@H]2CCCN2C(=O)[C@H](CC(N)=O)NC(=O)[C@H](C)NC(=O)[C@@H]2CSSC[C@@H](C(=O)N[C@@H](CCC(N)=O)C(=O)O)NC(=O)[C@H](Cc3cnc[nH]3)NC(=O)[C@H](CCCCN)NC(=O)CNC(=O)[C@H](CC(N)=O)NC(=O)[C@H](CSSC[C@H](NC(=O)[C@@H](N)CC(=O)O)C(=O)N2)NC1=O` (H-DCCANPVCNGKHCQ-OH; disulfide 2-8, 3-13), the IC50 in [3] was greater than 10 µM; in [5], greater than 10 µM; in [1], 3.3 µM; in test [7], greater than 10 µM; in test [9] it was greater than 10 µM; in test [13], greater than 10 µM. The half-inhibitory concentration (IC50) in test [14], in test [17], in test [18], in test [20] and in [22] was greater than 10 µM in each case. The inhibition in [4], in [6], in test [8], in test [10], in [11] and in test [12] was less than 50% throughout. Moreover, the inhibition in test [15], in [16], in test [19] and in test [21] was less than 50% in each case.

For the molecule `CC(C)[C@H](NC(=O)[C@H](Cc1cnc[nH]1)NC(=O)[C@H](CCCCN)NC(=O)[C@H](CS)NC(=O)[C@@H]1CCCN1C(=O)[C@@H]1CCCN1C(=O)[C@H](CC(N)=O)NC(=O)[C@H](C)NC(=O)[C@H](CS)NC(=O)[C@H](CS)NC(=O)C1CCC(=O)N1)C(=O)N[C@@H](CC(N)=O)C(=O)N[C@@H](CS)C(=O)N[C@@H](CCCNC(=N)N)C(N)=O` (stereo not given in full) ([ξpGlu]CCANPPCKHVNCR-NH2), in [1], the IC50 is 0.0818 µM. Further, in [2], the TIME is 0.15 h.
